# Experimental data taken from patent publication US7893077B2, “Bisaryl-sulfonamides” (Amgen Inc., priority 2004, dated 2011).
# Target: T1, PPARγ (Homo sapiens, UniProt P37231)
# T1 construct: made in house
# T1 sequence (P37231 1-505): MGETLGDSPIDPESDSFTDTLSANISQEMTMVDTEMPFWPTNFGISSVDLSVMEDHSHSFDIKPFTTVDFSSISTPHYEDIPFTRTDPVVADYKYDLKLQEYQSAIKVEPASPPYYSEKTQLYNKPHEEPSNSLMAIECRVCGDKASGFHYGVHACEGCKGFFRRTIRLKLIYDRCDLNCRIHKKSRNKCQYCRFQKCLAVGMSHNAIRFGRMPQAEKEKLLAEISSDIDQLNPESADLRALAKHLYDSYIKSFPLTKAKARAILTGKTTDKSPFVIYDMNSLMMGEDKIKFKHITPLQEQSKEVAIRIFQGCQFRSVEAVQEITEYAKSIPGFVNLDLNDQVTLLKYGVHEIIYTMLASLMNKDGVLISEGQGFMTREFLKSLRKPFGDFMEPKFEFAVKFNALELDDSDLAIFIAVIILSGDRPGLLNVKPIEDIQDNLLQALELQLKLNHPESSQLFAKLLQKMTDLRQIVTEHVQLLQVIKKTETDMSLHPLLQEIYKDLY
# Assay: PPARγ ligand binding assay utilizing [3H]-BRL 49653 as the radioligand (filtration)
# Conditions: concentration required to reduce by 50% the specific binding of [3H]-BRL 49653
# From the text: The compounds of the present invention can be evaluated for modulation of the PPARγ receptor using assays such as those described in Jiang, et al., Nature 391:82-86 (1998), Ricote, et al., Nature 391:79-82 (1998) and Lehmann, et al., J. Biol. Chem. 270(12): 12953-12956 (1995). Alternatively, the compounds can be evaluated for their ability to displace radiolabeled BRL 49653 from a PPARγ-GST fusion protein as follows:
# PPARγ-GST fusion protein (prepared according to standard procedures), [^3H]-BRL 49653 having 50 Ci/mmol specific activity, Polyfiltronics Unifilter 350 filtration plate and glutathione-Sepharose® beads (from Pharmacia: washed twice with 10× binding buffer in which BSA and DTI can be left out).
# Binding buffer (10 mM Tris-HCl, pH 8.0, 50 mM KCl, 10 mM DTT, 0.02% BSA and 0.0 1% NP-40) is added in 80-μL amounts to the wells of the filtration plate. The test compound is then added in 10 μL of DMSO. The PPARγ-GST fusion protein and radiolabeled BRL compound are premixed in binding buffer containing 10 mM DTT and added in 10-μL amounts to the wells of the plate to provide final concentrations of 1 µg/well of PPARγ-GST fusion protein and 10 nM [^3H]-BRL 49653 compound. The plate is incubated for 15 min. Glutathione-agarose bead is added in 50 μL of binding buffer, and the plate is vigorously shaken for one hour. The plate is washed four times with 200 μL/well of binding buffer (without BSA and DTT). The bottom of the plate is sealed and 200 μL/well of scintillation cocktail is added. The top of the plate is then sealed and the radioactivity is determined.
# IC50 values are defined as the concentration of test compounds required to reduce by 50% the specific binding of [^3H]-BRL 49653 and are represented by (+)<30 μM; (++)<10 μM; (+++)<1 μM.
row,Structure (SMILES),IC50 [nM]
1,"CCCNc1nc(NS(=O)(=O)c2ccc(Cl)cc2Cl)ncc1Sc1ccc(S(=O)(=O)N2CCCCC2)cc1 [Compound 12, 2,4-Dichloro-N-{5-[4-(piperidine-1-sulfonyl)-phenylsulfanyl]-4-propylamino-pyrimidin-2-yl}-benzenesulfonamide]",< 1000
2,"CCNc1nc(NS(=O)(=O)c2ccc(Cl)cc2Cl)ncc1Sc1ccc(S(=O)(=O)N2CCCCC2)cc1 [Compound 13, 2,4-Dichloro-N-{4-ethylamino-5-[4-(piperidine-1-sulfonyl) -phenylsulfanyl]-pyrimidin-2-yl}-benzenesulfonamide]",< 1000
3,"CCCCNc1nc(NS(=O)(=O)c2ccc(Cl)cc2Cl)ncc1Sc1ccc(S(=O)(=O)N2CCCCC2)cc1 [Compound 14, N-{4-Butylamino-5-[4-(piperidine-1-sulfonyl)-phenylsulfanyl]-pyrimidin-2-yl}-2,4-dichloro-benzenesulfonamide]",< 1000
4,"CCCN(C)c1nc(NS(=O)(=O)c2ccc(Cl)cc2Cl)ncc1Sc1ccc(S(=O)(=O)N2CCCCC2)cc1 [Compound 15, 2,4-Dichloro-N-{4-(methyl-propyl-amino)-5-[4-(piperidine-1-sulfonyl)-phenylsulfanyl]-pyrimidin-2-yl}-benzenesulfonamide]",< 1000
5,"COCCNc1nc(NS(=O)(=O)c2ccc(Cl)cc2Cl)ncc1Sc1ccc(S(=O)(=O)N2CCCCC2)cc1 [Compound 16, 2,4-Dichloro-N-{4-(2-methoxy-ethylamino)-5-[4-(piperidine-1-sulfonyl)-phenylsulfanyl]-pyrimidin-2-yl}-benzenesulfonamide]",< 1000
6,"CC(C)Nc1nc(NS(=O)(=O)c2ccc(Cl)cc2Cl)ncc1Sc1ccc(S(=O)(=O)N2CCCCC2)cc1 [Compound 17, 2,4-Dichloro-N-{4-isopropylamino-5-[4-(piperidine-1-sulfonyl)-phenylsulfanyl]-pyrimidin-2-yl}-benzenesulfonamide]",< 10000
7,"CCC(CC)Nc1nc(NS(=O)(=O)c2ccc(Cl)cc2Cl)ncc1Sc1ccc(S(=O)(=O)N2CCCCC2)cc1 [Compound 18, 2,4-Dichloro-N-{4-(1-ethyl-propylamino)-5-[4-(piperidine-1-sulfonyl)-phenylsulfanyl]-pyrimidin-2-yl}-benzenesulfonamide]",< 30000
8,"O=S(=O)(Nc1ncc(Sc2ccc(S(=O)(=O)N3CCCCC3)cc2)c(NCC2CC2)n1)c1ccc(Cl)cc1Cl [Compound 19, 2,4-Dichloro-N-{4-(cyclopropylmethyl-amino)-5-[4-(piperidine-1-sulfonyl)-phenylsulfanyl]-pyrimidin-2-yl}-benzenesulfonamide]",< 1000
9,"CC(C)CNc1nc(NS(=O)(=O)c2ccc(Cl)cc2Cl)ncc1Sc1ccc(S(=O)(=O)N2CCCCC2)cc1 [Compound 20, 2,4-Dichloro-N-{4-isobutylamino-5-[4-(piperidine-1-sulfonyl)-phenylsulfanyl]-pyrimidin-2-yl}-benzenesulfonamide]",< 1000
10,"CC(C)CCNc1nc(NS(=O)(=O)c2ccc(Cl)cc2Cl)ncc1Sc1ccc(S(=O)(=O)N2CCCCC2)cc1 [Compound 21, 2,4-Dichloro-N-{4-(3-methyl-butylamino)-5-[4-(piperidine-1-sulfonyl)-phenylsulfanyl]-pyrimidin-2-yl}-benzenesulfonamide]",< 10000
11,"CCCNc1nc(NS(=O)(=O)c2ccc(Cl)cc2)ncc1Sc1ccc(S(=O)(=O)N2CCCCC2)cc1 [Compound 22, 4-Chloro-N-{5-[4-(piperidine-1-sulfonyl)-phenylsulfanyl]-4-propylamino-pyrimidin-2-yl}-benzenesulfonamide]",< 1000
12,"CCCNc1nc(NS(=O)(=O)c2ccc(OC)cc2)ncc1Sc1ccc(S(=O)(=O)N2CCCCC2)cc1 [Compound 23, 4-Methoxy-N-{5-[4-(piperidine-1-sulfonyl)-phenylsulfanyl]-4-propylamino-pyrimidin-2-yl}-benzenesulfonamide]",< 10000
13,"CCCNc1nc(NS(=O)(=O)c2ccc(Cl)cc2)ncc1Oc1ccc(S(=O)(=O)N2CCOCC2)cc1 [Compound 24, 4-Chloro-N-{5-[4-(morpholine-4-sulfonyl)-phenoxy]-4-propylamino-pyrimidin-2-yl}-benzenesulfonamide]",< 10000
14,"CNc1nc(NS(=O)(=O)c2ccc(Cl)cc2Cl)ncc1Sc1ccc2ccccc2c1 [Compound 25, 2,4-Dichloro-N-[4-methylamino-5-(naphthalen-2-ylsulfanyl) -pyrimidin-2-yl]-benzenesulfonamide]",< 30000
15,"CN(C)c1nc(NS(=O)(=O)c2ccc(Cl)cc2Cl)ncc1Sc1ccc2ccccc2c1 [Compound 26, 2,4-Dichloro-N-[4-dimethylamino-5-(naphthalen-2-ylsulfanyl) -pyrimidin-2-yl]-benzenesulfonamide]",< 30000
16,"CCCNc1nc(NS(=O)(=O)c2ccc(Cl)cc2Cl)ncc1Oc1ccc(Cl)c(Cl)c1 [Compound 27, 2,4-Dichloro-N-[5-(3,4-dichloro-phenoxy)-4-propylamino-pyrimidin-2-yl]-benzenesulfonamide]",< 10000
17,"CCCOc1nc(NS(=O)(=O)c2ccc(Cl)cc2Cl)ncc1Sc1ccc(S(=O)(=O)N2CCCCC2)cc1 [Compound 28, 2,4-Dichloro-N-{5-[4-(piperidine-1-sulfonyl)-phenylsulfanyl]-4-propoxy-pyrimidin-2-yl}-benzenesulfonamide]",< 1000
18,"CCCOc1nc(NS(=O)(=O)c2ccc(Cl)cc2)ncc1Oc1ccc(S(=O)(=O)N2CCOCC2)cc1 [Compound 29, 4-Chloro-N-{5-[4-(morpholine-4-sulfonyl)-phenoxy]-4-propoxy-pyrimidin-2-yl}-benzenesulfonamide]",< 10000
19,"COc1nc(NS(=O)(=O)c2ccc(Cl)cc2Cl)ncc1Sc1ccc2ccccc2c1 [Compound 30, 2,4-Dichloro-N-[4-methoxy-5-(naphthalen-2-ylsulfanyl)-pyrimidin-2-yl]-benzenesulfonamide]",< 10000
20,"CCCOc1nc(NS(=O)(=O)c2ccc(Cl)cc2Cl)ncc1Oc1ccc(Cl)c(Cl)c1 [Compound 31, 2,4-Dichloro-N-[5-(3,4-dichloro-phenoxy)-4-propoxy-pyrimidin-2-yl]-benzenesulfonamide]",< 10000
21,"CCCSc1nc(NS(=O)(=O)c2ccc(Cl)cc2Cl)ncc1Sc1ccc(S(=O)(=O)N2CCCCC2)cc1 [Compound 32, 2,4-Dichloro-N-{5-[4-(piperidine-1-sulfonyl)-phenylsulfanyl]-4-propylsulfanyl-pyrimidin-2-yl}-benzenesulfonamide]",< 1000
22,"CCCCc1nc(NS(=O)(=O)c2ccc(Cl)cc2Cl)ncc1Sc1ccc(S(=O)(=O)N2CCCCC2)cc1 [Compound 43, N-{4-Butyl-5-[4-(piperidine-1-sulfonyl)-phenylsulfanyl]-pyrimidin-2-yl}-2,4-dichloro-benzenesulfonamide]",< 1000
23,"CCCCc1nc(NS(=O)(=O)c2ccc(Cl)cc2)ncc1Sc1ccc(S(=O)(=O)N2CCCCC2)cc1 [Compound 44, N-{4-Butyl-5-[4-(piperidine-1-sulfonyl)-phenylsulfanyl]-pyrimidin-2-yl}-4-chloro-benzenesulfonamide]",< 1000
24,"CCCCc1nc(NS(=O)(=O)c2ccc(OC)cc2)ncc1Sc1ccc(S(=O)(=O)N2CCCCC2)cc1 [Compound 45, N-{4-Butyl-5-[4-(piperidine-1-sulfonyl)-phenylsulfanyl]-pyrimidin-2-yl}-4-methoxy-benzenesulfonamide]",< 1000
25,"CCCCc1nc(NS(=O)(=O)c2ccc(C(F)(F)F)cc2Cl)ncc1Sc1ccc(S(=O)(=O)N2CCCCC2)cc1 [Compound 46, N-{4-Butyl-5-[4-(piperidine-1-sulfonyl)-phenylsulfanyl]-pyrimidin-2-yl}-2-chloro-4-trifluoromethyl-benzenesulfonamide]",< 1000
26,"CCCCCc1nc(NS(=O)(=O)c2ccc(Cl)cc2Cl)ncc1Sc1ccc(S(=O)(=O)N2CCCCC2)cc1 [Compound 47, 2,4-Dichloro-N-{4-pentyl-5-[4-(piperidine-1-sulfonyl) -phenylsulfanyl]-pyrimidin-2-yl}-benzenesulfonamide]",< 1000
